Results published in patent publication US20210277246A1, “PROBE FOR DETECTING CARBAPENEM-RESISTANT BACTERIA AND USE THEREOF” (priority 2018, published 2021).

Columns and labels:
Experiment in all cases: MIC of carbapenems for isolates
Assay type in all cases: cell-based
[1] = test system: Klebsiella aerogenes (KPC); details: 1 isolate
[2] = test system: Klebsiella oxytoca (KPC); details: 1 isolate
[3] = test system: Citrobacter freundii (non-CP-CRE); details: 1 isolate
[4] = test system: Escherichia coli (IMP); details: 1 isolate
[5] = test system: Klebsiella pneumoniae (non-producer); details: 21 isolates
[6] = test system: Enterobacter cloacae (NDM); details: 2 isolates
[7] = test system: Klebsiella pneumoniae (ESBL-producer, CTX-M); details: 24 isolates
[8] = test system: Citrobacter freundii (NDM); details: 1 isolate
[9] = test system: Klebsiella pneumoniae (NDM/OXA); details: NDM/OXA co-producing, 1 isolate
[10] = test system: Escherichia coli (non-CP-CRE); details: 8 isolates
[11] = test system: Escherichia coli (OXA); details: 3 isolates
[12] = test system: Klebsiella pneumoniae (VIM); details: 1 isolate
[13] = test system: Escherichia coli (non-producer); details: 32 isolates
[14] = test system: Morganella morganii (NDM); details: 1 isolate
[15] = test system: Escherichia coli (KPC); details: 3 isolates
[16] = test system: Klebsiella oxytoca (VIM); details: 1 isolate
[17] = test system: Klebsiella pneumoniae (NDM); details: 1 isolate
[18] = test system: Klebsiella pneumoniae (GES); details: 1 isolate
[19] = test system: Klebsiella pneumoniae (OXA); details: 2 isolates
[20] = test system: Escherichia coli (NDM); details: 4 isolates
[21] = test system: Enterobacter amnigenus (non-CP-CRE); details: Lelliottia amnigena, 4 isolates
[22] = test system: Citrobacter freundii (OXA); details: 1 isolate
[23] = test system: Citrobacter freundii (KPC); details: 1 isolate
[24] = test system: Klebsiella pneumoniae (non-CP-CRE); details: 22 isolates
[25] = test system: Enterobacter cloacae (VIM); details: 1 isolate
[26] = test system: Klebsiella aerogenes (non-CP-CRE); details: 3 isolates
[27] = test system: Enterobacter cloacae (non-CP-CRE); details: 10 isolates

| SMILES | MIC [1] [µg/mL] | MIC [2] [µg/mL] | MIC [3] [µg/mL] | MIC [4] [µg/mL] | MIC [5] [µg/mL] | MIC [6] [µg/mL] | MIC [8] [µg/mL] | MIC [9] [µg/mL] | MIC [12] [µg/mL] | MIC [13] [µg/mL] | MIC [14] [µg/mL] | MIC [15] [µg/mL] | MIC [16] [µg/mL] | MIC [17] [µg/mL] | MIC [18] [µg/mL] | MIC [20] [µg/mL] | MIC [22] [µg/mL] | MIC [23] [µg/mL] | MIC [25] [µg/mL] | further results |
| --- | --- | --- | --- | --- | --- | --- | --- | --- | --- | --- | --- | --- | --- | --- | --- | --- | --- | --- | --- | --- |
| C[C@@H](O)[C@H]1C(=O)N2C(C(=O)O)=C(S[C@@H]3CN[C@H](C(=O)N(C)C)C3)[C@H](C)[C@H]12 [MEM, meropenem] | 16 | > 16 | 0.5 | 1 | ≤ 0.25 | > 16 | 16 | 4 | > 16 | ≤ 0.25 | 4 | 4 | 1 | > 16 | > 16 | > 16 | 0.5 | 8 | 2 | MIC [7]: ≤ 0.25 µg/mL; MIC [10]: 0.25 to 8 µg/mL; MIC [11]: 0.25 to 4 µg/mL; MIC [19]: 0.5 to 16 µg/mL; MIC [21]: 2 to 8 µg/mL; MIC [24]: 0.5 to 8 µg/mL; MIC [26]: 0.5 to 16 µg/mL |
| C[C@@H](O)[C@H]1C(=O)N2C(C(=O)O)=C(S[C@@H]3CN[C@H](C(=O)Nc4cccc(C(=O)O)c4)C3)[C@H](C)[C@H]12 [ERT, ertapenem] | > 16 | > 16 | 2 | 4 | ≤ 0.125 | > 16 | > 16 | 16 | > 16 | ≤ 0.125 | 2 | 8 | 0.5 | > 16 | > 16 | > 16 | 1 | > 16 | 1 | MIC [27]: 2 to 16 µg/mL |
